Experiments:
[1] = tested on: dimethylbenene-induced ear swelling; test: Acute ear edema of mice induced by dimethylbenene; format: in vivo; settings: positive control applied on ear; two hours after dimethylbenene
Method: The mice were randomly divided into 5 groups. Thirty minutes and sixty minutes after applying dimethylbenene (50 μl) to the anterior and posterior surfaces of the right ear, 25% ethanol (50 μl), the linimene solutions of anemonin (0.05, 0.5, 5 mg/ml, 50 μl) and FAA (a positive control) were applied on the same ears of mice respectively. The left ear was considered as control. Two hours after dimethylbenene application, mice were killed and both ears were removed. Circular sections were taken, using a 9 mm-diameter borer, and weighed. The increase in weight caused by the irritant was measured by subtracting the weight of the untreated left ear section from that of the treated right ear section.

[2] = tested on: carrageenan-induced paw edema; test: Acute hind paw edema of rats induced by carrageenan; format: in vivo; settings: for Paw edema: FAA group
Method: The animals were injected subcutaneously with carrageenan (10 μl of 1% solution in saline) into the right paw. Anti-inflammatory properties of external anemonin were studied by applying with various liniment solution of anemonin (0.125, 0.5, 2 mg/ml, 0.5 ml) for 2 h immediately after administration of carrageenan. The rats of control group were treated with the same volume of solvent (25% ethanol). The paw volumes of rats were measured at 0, 2 h, 3 h, 4 h, 5 h, 6 h after injection of carrageenan. The paw edema was represented by subtracting the volume of the untreated same paw from that of the treated paw.

[3] = tested on: swelling of rat's hind foot; test: Anti-swelling test on rat's hind foot (carrageenan); format: in vivo, rats; settings: 0.025% ointment
Method: This experiment included 4 groups of rats totaling 40 and each weighed 200-250 g: high concentration group, low concentration group (12.5 mg/25 ml, 6.25 mg/25 ml respectively), fluocinolone acetonide group, control group (the same volume of 25% ethanol). Fluocinolone acetonide was given using a 0.025% ointment, and other groups received corresponding medicament on the left and right hind feet prior to subcutaneous injection of 0.1 ml of 1% carrageenan on the metatarsus of each rat's right hind foot. Immediately after the administration of carrageenan, corresponding medicament was applied on the right hind foot. The metatarsal perimeters of right and left hind foot of each rat were measured 2, 3, 4, and 5 hours after the final administration. The difference between the metatarsal perimeters of the two feet of each rat is taken as a measure of swelling. Corresponding medicament was applied again on rat's right hind foot after each measurement.

pain induced by formalin = test: Analgesic test with formalin; format: in vivo, mice; settings: 25 mg/kg intraperitoneal
Method: Dolantin was intraperitoneal injected and other groups received test medication on left and right hind feet. 15 minutes after administration, 0.03 ml of 2.5% formalin was given to each mouse by subcutaneous injection on right hind foot and then the test medication was applied again. Then, the number of times of each mouse's licking its right hind foot in 15 minutes was counted.

[4] = tested on: pain induced by hot plate; test: Analgesic test with hot plate; format: in vivo, mice; settings: 25 mg/kg intraperitoneal
Method: This experiment included 4 groups of female mice, totaling 64 and each weighed 18-22 g, selected for normal pain reaction with 55° C. hot plate: high concentration group, low concentration group, dolantin group and control group. The route of administration and dosage are the same as described in the test with formalin. Dolantin was intraperitoneal injected and other groups received test medication on left and right hind feet and abdomen. 30, 60 and 90 minutes after the administration, the mice were put on a 55° C. hot plate and the latent time of each mouse for pain reaction was determined.

skin = test: Skin allergic test; settings: guinea pigs

SMILES: CC(=O)OCC(=O)[C@@]12OC(C)(C)O[C@@H]1C[C@H]1[C@@H]3C[C@H](F)C4=CC(=O)C=C[C@]4(C)[C@@]3(F)[C@@H](O)C[C@@]12C [FAA, Fluocinoloni Acetonidi Acetas, reference compound]
- Ear swellin [1]: 10 ± 1.8 mg
- Paw edema ([2]; 2 h): 0.13 ± 0.05 mL
- Paw edema ([2]; 3 h): 0.09 ± 0.07 mL
- Paw edema ([2]; 4 h): 0.11 ± 0.08 mL
- Paw edema ([2]; 5 h): 0.09 ± 0.07 mL
- Paw edema ([2]; 6 h): 0.09 ± 0.11 mL
- edema formation ([2]; steroidal anti-inflammatory drug, positive control): significantly inhibited

SMILES: CC1(C)O[C@@H]2C[C@H]3[C@@H]4C[C@H](F)C5=CC(=O)C=C[C@]5(C)[C@@]4(F)[C@@H](O)C[C@]3(C)[C@]2(C(=O)CO)O1 [Fluocinolone acetonide]
- Degree of tumefaction (cm) ([3]; 2 hours): 0.91 ± 0.20 cm
- Degree of tumefaction (cm) ([3]; 3 hours): 0.92 ± 0.13 cm
- Degree of tumefaction (cm) ([3]; 4 hours): 0.90 ± 0.18 cm
- Degree of tumefaction (cm) ([3]; 5 hours): 0.92 cm

SMILES: CCOC(=O)C1(c2ccccc2)CCN(C)CC1 [Dolantin]
- Rate of inhibition(%) (pain induced by formalin): 100%
- Times of licking hind feet (pain induced by formalin; 15 minutes): 0.00 ± 0.00
- Increase of pain threshold (%) ([4]; 30 min after administration): 66%
- Latent time for pain reaction ([4]; 30 min after administration): 49.86 ± 5.23 s
- Increase of pain threshold (%) ([4]; 60 min after administration): 80%
- Latent time for pain reaction ([4]; 60 min after administration): 54.29 ± 9.27 s
- Increase of pain threshold (%) ([4]; 90 min after administration): 94%
- Latent time for pain reaction ([4]; 90 min after administration): 58.31 ± 11.23 s

SMILES: O=[N+]([O-])c1ccc(Cl)c([N+](=O)[O-])c1 [positive control, 2,4-dinitrochlorobenzene]
- allergenic intensity (skin): extreme
- allergenic rate (skin): 100%
